Experimental data reported in ChEMBL document CHEMBL3507680, “University of Dundee, Gates Library screen for HepG2 cell viability”.

Experiment: Human HepG2 cell viability assay in 384 well format
Assay type: toxicity, cell-based
Design: dose 125 nL, time 70.5 hour; concentration not given beside the values
Details: HepG2 cells, read-out: Inhibition

SMILES	cytotoxicity at 70.5 h
CN1C[C@H](O)[C@]2(CCN(C(=O)COc3ccccc3)C2)S1(=O)=O	-5.4%
CN1C[C@@H](O)[C@]2(CCN(C(=O)c3ccccc3)C2)S1(=O)=O	-7.54%
CN1C[C@@H](O)[C@]2(CCN(C(=O)OCc3ccccc3)C2)S1(=O)=O	-10.5%
CNC(=O)CC1c2cccnc2C(=O)N1Cc1ccccc1 (stereo not given)	-4.81%
NC(=O)CC1c2cccnc2C(=O)N1Cc1ccccc1 (stereo not given)	-6.46%
CCCC(O)CN1CCC(=O)N(CCOC)Cc2ccccc21 (stereo not given)	-10.1%
CN1Cc2ccccc2N(CC(O)C(F)(F)F)CCC1=O (stereo not given)	-6.68%
CN1Cc2cc(F)ccc2N(CC(O)C(F)(F)F)CCC1=O (stereo not given)	11.8%
O=C1CCNc2ccc(F)cc2CN1Cc1ccccc1	2.31%
O=C1CCNc2ccc(F)cc2CN1Cc1ccco1	2.21%
O=C1CCNc2ccccc2CN1Cc1ccco1	-6.23%
COc1ccc2c(c1)CN(C)C(=O)CCN2CC(O)C(C)(C)C (stereo not given)	-6.98%
O=C1CN(C(=O)OCc2ccccc2)CC(O)CN1Cc1ccco1 (stereo not given)	12.1%
COc1ccccc1C(=O)N1CC(=O)N(Cc2ccco2)CC(O)C1 (stereo not given)	-12.4%
CC(C)COC(=O)N1CC(=O)N(Cc2ccco2)CC(O)C1 (stereo not given)	-3.84%
CCCC1CN(CCOc2ccccc2)C(=O)c2cccnc2O1 (stereo not given)	4.28%
CC(C)CN1C[C@H](COCc2ccccc2)Oc2ncccc2C1=O	23.1%
CNC(=O)[C@@H]1[C@@H](OC(=O)Nc2ccccc2)C(=O)N(C)C12CCNCC2	-2.76%
CCS(=O)(=O)N1CCC(OC)c2ccccc2N(CC(=O)NC)C(=O)C1 (stereo not given)	-1.92%
OCC1N(Cc2ccco2)[C@H]2CC[C@]1(O)CC2 (stereo not given in full)	-9.15%
COCC1N(C(=O)c2ccc3c(c2)OCCCO3)[C@H]2CC[C@]1(O)CC2 (stereo not given in full)	-6.94%
CCOC(=O)C1CC2(CCOCC2)N2CCC(=O)N12 (stereo not given)	-6.97%
O=S1(=O)c2ccccc2C(O)CN1CCO (stereo not given)	-5.7%

SMILES	cytotoxicity at 70.5 h
CCOC(=O)[C@@H]1CN2CCNC[C@@H]2[C@H]1c1ccccc1	-7.39%
CCOC(=O)[C@@H]1[C@@H](c2ccccc2)CN2CCN(C(=O)N(C)C)C[C@H]12	-5.43%
CCOC(=O)[C@@H]1[C@H]2CN(C(=O)OC)CCN2C[C@H]1c1ccccc1	-5.21%
CCCC(O)CN1CCC(=O)N(Cc2ccccc2)Cc2ccccc21 (stereo not given)	2.6%
COCC(O)CN1CCC(=O)N(Cc2ccco2)Cc2ccccc21 (stereo not given)	26.6%
COc1ccc(CN2CC(O)CN(C(=O)CC(C)C)CC2=O)cc1 (stereo not given)	4.85%
CC(O)CN1CC(C)(C)CN(C(=O)CCc2ccccc2)CC1=O (stereo not given)	-2.42%
CN1CC(C)(C)CN(C(=O)CCc2ccccc2)CC1=O	-1.8%
Cc1ccc(CN2CC(O)CN(C(=O)C3CC3)CC2=O)cc1 (stereo not given)	-5.26%
COc1cccc(OC)c1C(=O)N1CC(=O)N(C2CCC2)CC(O)C1 (stereo not given)	-0.00128%
CCOc1ccccc1C(=O)N1CC(=O)N(C2CCC2)CC(O)C1 (stereo not given)	-4.81%
COc1ccc(C(=O)N2CC(=O)N(C3CCC3)CC(O)C2)cc1OC (stereo not given)	-5.23%
O=C1CN(C(=O)c2cccc(C(F)(F)F)c2)CC(O)CN1CC1CC1 (stereo not given)	20.9%
CCN1CC(O)CN(C(=O)c2cccc(C(F)(F)F)c2)CC1=O (stereo not given)	-4.06%
CCN1CC(O)CN(C(=O)c2ccc(SC)cc2)CC1=O (stereo not given)	-4.25%
N#CCCN1CC(O)CN(C(=O)c2cccc(C(F)(F)F)c2)CC1=O (stereo not given)	-1.43%
COC1CCN(C(=O)NCC(N)=O)CC(=O)N(C)c2ccccc21 (stereo not given)	-5.28%
Cc1cc(C)nc(NC2CCCN(CCCc3ccccc3)C2)n1 (stereo not given)	54.5%
CCN(CCn1cccn1)Cc1nc(-c2ccc(F)cc2)oc1C	-6.91%
O=C(O)C(c1ccc2c(c1)OCCO2)N1CCC(N2CCSCC2)CC1 (stereo not given)	-1.86%
CC(C)n1cnnc1CN(C)Cc1cnc(-c2cccs2)nc1	0.122%
Cc1nn(C)c(C)c1CN(CCO)C(=O)C1COc2ccccc2C1 (stereo not given)	30%
CC(C)CN1CC2(CCN(C(=O)c3nc4ncccn4n3)CC2)CC1=O	-17.1%

SMILES	cytotoxicity at 70.5 h
Cc1cc(C)n(CCN2CCOC(CNc3cccnn3)C2)n1 (stereo not given)	-4.33%
CC(C)OCCCNC(=O)CS(=O)(=O)Cc1cccc(Cl)c1	-10.6%
Cc1ccc(C(=O)NCc2cccnc2N(C)C)s1	-10.9%
O=C(CC1CCCCC1)NC1CCCCNC1=O (stereo not given)	-9.32%
O=C(CS(=O)(=O)Cc1ccc(F)cc1)NC1CCCCNC1=O (stereo not given)	-6.01%
CC(NC(=O)c1ccoc1)c1ccc2c(c1)CCC(=O)N2 (stereo not given)	-0.0886%
Cc1ccsc1CNC(=O)NC(C)c1ccc2c(c1)CCC(=O)N2 (stereo not given)	-13.4%
CCCc1nnc(NC(=O)NC(C)Cn2cccn2)s1 (stereo not given)	-0.592%
CCn1c(C(=O)N2CCCN(CC(N)=O)CC2)cc2ccccc21	-3.29%
COC(=O)C(NC(=O)C1CCC1)c1cc(F)ccc1F (stereo not given)	-7.83%
NC(=O)C1CCN(C(=O)c2cccn2Cc2cccs2)C1 (stereo not given)	-0.693%
c1ccc(-c2nnc(CN3CCCC3Cn3cncn3)o2)cc1 (stereo not given)	-0.362%
COC(=O)C(NC(=O)CCc1ccco1)c1cc(F)ccc1F (stereo not given)	-7.98%
CCOCC(O)CN1CCN(C(=O)c2cc(Cl)ccc2F)CC1 (stereo not given)	2.85%
Fc1ccc(-c2nnc(CN3CCCC(Cn4cncn4)C3)o2)cc1 (stereo not given)	-5.49%
CCOCC(O)CN1CCN(C(=O)c2cccc(OC)c2)CC1 (stereo not given)	-2.53%
CCOCC(O)CN1CCN(C(=O)c2cc(F)cc(F)c2)CC1 (stereo not given)	-2.71%
c1ccc(OCCCN2CCOC(CNc3cccnn3)C2)cc1 (stereo not given)	-6.97%
COc1ccc(C)cc1CC(=O)NS(=O)(=O)c1ccc(C(N)=O)cc1	-6.98%
CC(=O)N1CCCC1C(=O)NCCOc1cccc(F)c1 (stereo not given)	-12.8%
CC(=O)N1CCCC1C(=O)NCCOc1ccc(C(C)C)cc1 (stereo not given)	-1.19%
CN(Cc1ccco1)C(=O)C1CSCN1C(=O)C1CCC1 (stereo not given)	-8.79%
Cc1nc(C)c(CN2CCC(N(C)Cc3nnc(C4CC4)o3)C2)s1 (stereo not given)	-12.3%

SMILES	cytotoxicity at 70.5 h
CCN(CC)Cc1ccc(C(=O)N2CCCC2c2cnn(C)c2)o1 (stereo not given)	21.2%
Cc1ccc(CN(C)C(=O)CN2CCCC(Cn3cncn3)C2)o1 (stereo not given)	-5.76%
CC(=O)N1CCCC(C(=O)NCCOc2cc(C)cc(C)c2)C1 (stereo not given)	18%
CC(=O)NCc1ccc(C(=O)N2CCCC2c2c(C)nn(C)c2C)o1 (stereo not given)	-9.03%
Cc1nn(C)c(C)c1C1CCCN1C(=O)CCc1ccco1 (stereo not given)	-1.9%
CN(Cc1cccs1)C(=O)CN1CCCC(Cn2cncn2)C1 (stereo not given)	-5.28%
Cc1ccc(CNC(=O)Nc2nncs2)cn1	-6.07%
Cc1ccc(CNC(=O)Nc2nccs2)cn1	-4.14%
Cc1ccc(-c2nc(CN3CCN(CCO)CC3)co2)cc1	-9.54%
CCOCCCn1c(NC(=O)c2cnc(C)s2)nc2ccccc21	4.48%
CN(Cc1ccncc1)C(=O)[C@H]1CSCN1C(=O)OC(C)(C)C	-2.79%
CN(Cc1ccsc1)C(=O)CN1CCCC(Cn2cncn2)C1 (stereo not given)	-5.89%
CC(=O)NCc1ccc(C(=O)N2CCCC2c2cnn(C)c2)s1 (stereo not given)	-0.6%
Cc1csc(C2CCCCN2C(=O)c2cc(C)n(C)n2)n1 (stereo not given)	25.5%
Cc1csc(C2CCCCN2C(=O)c2cc(C(C)C)[nH]n2)n1 (stereo not given)	1.99%
Cc1nc(CN(C)C2CCN(Cc3ccc(Cl)s3)C2)no1 (stereo not given)	-4.8%
N#Cc1ccsc1NC(=O)CCN1CCn2c(nnc2C2CC2)C1	-7.52%
N#Cc1ccsc1NC(=O)CN1CCn2c(nnc2C2CC2)C1	-6.74%
Cc1csc(C2CCCCN2C(=O)c2c[nH]c(C)n2)n1 (stereo not given)	0.914%
CCc1nnc(CN(C)C2CCCN(Cc3noc(C4CC4)n3)C2)o1 (stereo not given)	12.1%
Cc1cc(CN2CCC(N(C)Cc3noc(C4CC4)n3)C2)no1 (stereo not given)	13%
CC(C(=O)NCCN1CCN(C)CC1)n1cncn1 (stereo not given)	-7.19%
CC1CCN(CCNC(=O)C(C)n2cncn2)CC1 (stereo not given)	-2.14%

SMILES	cytotoxicity at 70.5 h
Cc1cc(C)n(CC2CCCN2CC(=O)Nc2cc(C(C)C)no2)n1 (stereo not given)	14.2%
COc1ccccc1CNC(=O)CNCCn1cc(C)cn1	-13.5%
c1ccc(Cc2noc(CN3CCc4cncnc4C3)n2)cc1	-9.62%
CCC(O)CN1CCN(C(=O)CCc2c(C)noc2Cl)CC1 (stereo not given)	-12.7%
Cc1cnn(C2CN(CC(=O)NCC(C)C)C2)c1	-13.6%
CS(=O)(=O)c1ccc(C(=O)NCCNc2ncccn2)cc1	-12.6%
Cc1csc(CNC(=O)N2CCN(Cc3ccco3)CC2)n1	-5.98%
Cc1csc(CNC(=O)N2CCN(Cc3cc(C)on3)CC2)n1	-3.55%
COc1cc(CCC(=O)NC(C)C)ccc1OCC(F)(F)F	-18.5%
O=C(Cc1ccc2c(c1)CCC2)NCCNc1cnccn1	-16%
Cc1cc(CN2CCN(C(=O)NCc3c(C)noc3C)CC2)on1	-13.9%
CN(Cc1cccc(OC(F)F)c1)Cc1nc2c(cnn2C)c(=O)[nH]1	2.1%
O=C(CN1C=Nc2ccccc2S1(=O)=O)NCc1ccccc1F	-9.4%
CN(Cc1cccc(C(N)=O)c1)Cc1nc2c(cnn2C)c(=O)[nH]1	-15.8%
O=C(CN1C=Nc2ccccc2S1(=O)=O)NCc1ccccc1	-9.5%
CC(C)(C)NC(=O)NC(=O)CN1C=Nc2ccccc2S1(=O)=O	-8.6%
CN(Cc1cccc(C#N)c1)Cc1nc2c(cnn2C)c(=O)[nH]1	-19%
Cc1noc(Cl)c1CCC(=O)N1CCN(Cc2ccncc2)CC1	-4.95%
COc1cc(CCC(=O)NCC2CC2)ccc1OCC(F)(F)F	-11.6%
Cc1noc(Cl)c1CCC(=O)N1CCN(CC(C)(C)O)CC1	7.84%
Cc1cnn(CCNCC(=O)NCCOc2ccc(Cl)cc2)c1	-13%
O=C(CN1C=Nc2ccccc2S1(=O)=O)NCCCc1ccccc1	-12.6%
Cc1noc(Cl)c1CCC(=O)N1CCN(c2cnccn2)CC1	-16.7%
